Data from ChEMBL document CHEMBL3991601, “The target landscape of clinical kinase drugs” (Science, 2017).
Active and inactive are the calls of the source. Rule as the data show it, for most assays here: actives have a measured Kd and inactives only a lower limit.

Experiments:
[1] = target: cAMP-dependent protein kinase catalytic subunit alpha (Homo sapiens, UniProt P17612)
[2] = target: Proto-oncogene tyrosine-protein kinase Src (Homo sapiens, UniProt P12931)
[3] = target: T1, STE20-related kinase adapter protein alpha (Homo sapiens, UniProt Q7RTN6)
T1 sequence (Q7RTN6 whole entry): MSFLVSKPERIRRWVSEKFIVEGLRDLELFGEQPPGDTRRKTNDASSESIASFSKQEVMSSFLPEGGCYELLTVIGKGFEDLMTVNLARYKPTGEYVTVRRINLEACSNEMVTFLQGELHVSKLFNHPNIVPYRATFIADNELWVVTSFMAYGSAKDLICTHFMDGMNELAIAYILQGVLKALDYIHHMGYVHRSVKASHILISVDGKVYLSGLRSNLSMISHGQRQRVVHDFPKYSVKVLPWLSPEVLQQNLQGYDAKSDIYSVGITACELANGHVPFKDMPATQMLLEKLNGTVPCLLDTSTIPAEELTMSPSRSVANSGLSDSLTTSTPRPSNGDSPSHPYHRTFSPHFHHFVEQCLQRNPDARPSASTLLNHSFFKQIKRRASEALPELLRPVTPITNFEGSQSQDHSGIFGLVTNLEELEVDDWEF

[4] = target: Protein kinase C delta type (Homo sapiens, UniProt Q05655)
Chain of Protein kinase C delta type (Q05655 whole entry): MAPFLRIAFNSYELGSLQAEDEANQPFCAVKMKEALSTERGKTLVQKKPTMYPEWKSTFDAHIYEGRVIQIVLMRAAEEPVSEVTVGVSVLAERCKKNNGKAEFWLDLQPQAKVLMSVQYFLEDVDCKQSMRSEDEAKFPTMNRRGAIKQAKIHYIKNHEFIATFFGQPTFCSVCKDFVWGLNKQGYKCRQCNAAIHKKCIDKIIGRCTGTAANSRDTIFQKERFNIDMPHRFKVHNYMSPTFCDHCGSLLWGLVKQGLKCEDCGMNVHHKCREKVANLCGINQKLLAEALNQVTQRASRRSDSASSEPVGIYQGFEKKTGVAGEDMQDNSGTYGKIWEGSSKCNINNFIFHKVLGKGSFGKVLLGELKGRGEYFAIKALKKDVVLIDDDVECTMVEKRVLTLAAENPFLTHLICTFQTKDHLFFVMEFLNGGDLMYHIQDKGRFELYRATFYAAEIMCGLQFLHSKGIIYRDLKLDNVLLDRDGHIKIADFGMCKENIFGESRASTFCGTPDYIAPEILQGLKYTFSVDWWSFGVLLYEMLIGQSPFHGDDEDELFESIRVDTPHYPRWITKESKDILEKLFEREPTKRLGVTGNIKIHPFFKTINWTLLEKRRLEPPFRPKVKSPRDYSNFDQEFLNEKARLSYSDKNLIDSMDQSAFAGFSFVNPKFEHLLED

[5] = target: T2, Serine/threonine-protein kinase TAO2 (Homo sapiens, UniProt Q9UL54)
T2 sequence (Q9UL54 whole entry): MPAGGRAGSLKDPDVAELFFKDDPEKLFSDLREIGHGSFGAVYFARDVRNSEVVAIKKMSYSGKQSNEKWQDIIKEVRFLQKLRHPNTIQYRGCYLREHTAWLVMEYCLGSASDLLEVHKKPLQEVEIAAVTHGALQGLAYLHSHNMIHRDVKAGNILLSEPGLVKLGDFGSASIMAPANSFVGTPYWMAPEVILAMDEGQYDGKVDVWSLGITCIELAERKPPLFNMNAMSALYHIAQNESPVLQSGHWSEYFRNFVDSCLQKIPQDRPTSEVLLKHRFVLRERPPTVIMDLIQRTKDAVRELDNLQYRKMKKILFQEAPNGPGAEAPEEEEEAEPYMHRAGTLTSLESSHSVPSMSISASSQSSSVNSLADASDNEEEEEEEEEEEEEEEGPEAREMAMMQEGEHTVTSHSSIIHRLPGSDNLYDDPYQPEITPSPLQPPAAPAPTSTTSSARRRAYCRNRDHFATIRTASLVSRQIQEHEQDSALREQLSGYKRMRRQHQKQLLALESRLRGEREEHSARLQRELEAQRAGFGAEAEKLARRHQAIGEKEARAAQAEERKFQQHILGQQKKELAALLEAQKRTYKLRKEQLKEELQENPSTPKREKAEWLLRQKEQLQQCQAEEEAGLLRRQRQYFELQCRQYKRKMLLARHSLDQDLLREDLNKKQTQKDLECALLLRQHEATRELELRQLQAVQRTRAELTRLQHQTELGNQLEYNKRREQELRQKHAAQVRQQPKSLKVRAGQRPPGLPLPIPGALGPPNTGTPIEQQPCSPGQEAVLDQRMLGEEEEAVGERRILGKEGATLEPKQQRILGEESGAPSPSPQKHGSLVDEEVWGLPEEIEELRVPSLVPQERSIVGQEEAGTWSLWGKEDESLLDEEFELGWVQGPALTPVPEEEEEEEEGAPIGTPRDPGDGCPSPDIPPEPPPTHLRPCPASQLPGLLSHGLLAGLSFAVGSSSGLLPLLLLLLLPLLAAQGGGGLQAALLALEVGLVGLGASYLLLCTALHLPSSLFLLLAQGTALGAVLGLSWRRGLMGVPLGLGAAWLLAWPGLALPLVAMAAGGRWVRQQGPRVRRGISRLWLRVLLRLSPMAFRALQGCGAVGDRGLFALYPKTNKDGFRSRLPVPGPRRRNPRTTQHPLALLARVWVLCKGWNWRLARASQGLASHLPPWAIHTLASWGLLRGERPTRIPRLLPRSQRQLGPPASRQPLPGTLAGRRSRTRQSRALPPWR

[6] = target: T3, Ephrin type-A receptor 1 (Homo sapiens, UniProt P21709)
T3 sequence (P21709 whole entry): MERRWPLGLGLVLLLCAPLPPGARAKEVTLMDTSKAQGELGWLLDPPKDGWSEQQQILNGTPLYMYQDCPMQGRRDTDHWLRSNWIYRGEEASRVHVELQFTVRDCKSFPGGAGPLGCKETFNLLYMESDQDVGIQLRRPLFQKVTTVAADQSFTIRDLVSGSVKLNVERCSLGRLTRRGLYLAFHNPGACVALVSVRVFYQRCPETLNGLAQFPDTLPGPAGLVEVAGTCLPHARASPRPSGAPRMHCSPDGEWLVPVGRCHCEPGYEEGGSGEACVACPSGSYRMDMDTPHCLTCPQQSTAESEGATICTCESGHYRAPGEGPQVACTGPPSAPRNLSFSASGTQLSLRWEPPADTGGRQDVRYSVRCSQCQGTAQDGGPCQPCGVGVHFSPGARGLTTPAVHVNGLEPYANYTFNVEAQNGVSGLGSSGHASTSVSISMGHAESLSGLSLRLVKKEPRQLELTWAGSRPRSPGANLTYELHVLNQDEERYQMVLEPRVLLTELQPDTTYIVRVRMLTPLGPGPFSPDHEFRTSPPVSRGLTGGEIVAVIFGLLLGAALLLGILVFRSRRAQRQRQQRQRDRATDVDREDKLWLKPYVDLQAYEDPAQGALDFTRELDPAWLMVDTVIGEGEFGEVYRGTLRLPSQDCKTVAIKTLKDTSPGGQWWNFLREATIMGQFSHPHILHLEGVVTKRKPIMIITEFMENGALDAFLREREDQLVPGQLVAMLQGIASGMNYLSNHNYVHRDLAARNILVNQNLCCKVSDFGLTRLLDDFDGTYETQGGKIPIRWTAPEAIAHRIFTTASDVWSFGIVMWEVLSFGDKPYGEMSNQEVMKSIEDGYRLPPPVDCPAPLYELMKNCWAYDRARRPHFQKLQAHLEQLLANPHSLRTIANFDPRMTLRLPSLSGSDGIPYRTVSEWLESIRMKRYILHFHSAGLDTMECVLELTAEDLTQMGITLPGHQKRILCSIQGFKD
Also: in the data inactive means no Kd found up to 30 µM.

Chain of Proto-oncogene tyrosine-protein kinase Src (P12931 2-536 limits assumed): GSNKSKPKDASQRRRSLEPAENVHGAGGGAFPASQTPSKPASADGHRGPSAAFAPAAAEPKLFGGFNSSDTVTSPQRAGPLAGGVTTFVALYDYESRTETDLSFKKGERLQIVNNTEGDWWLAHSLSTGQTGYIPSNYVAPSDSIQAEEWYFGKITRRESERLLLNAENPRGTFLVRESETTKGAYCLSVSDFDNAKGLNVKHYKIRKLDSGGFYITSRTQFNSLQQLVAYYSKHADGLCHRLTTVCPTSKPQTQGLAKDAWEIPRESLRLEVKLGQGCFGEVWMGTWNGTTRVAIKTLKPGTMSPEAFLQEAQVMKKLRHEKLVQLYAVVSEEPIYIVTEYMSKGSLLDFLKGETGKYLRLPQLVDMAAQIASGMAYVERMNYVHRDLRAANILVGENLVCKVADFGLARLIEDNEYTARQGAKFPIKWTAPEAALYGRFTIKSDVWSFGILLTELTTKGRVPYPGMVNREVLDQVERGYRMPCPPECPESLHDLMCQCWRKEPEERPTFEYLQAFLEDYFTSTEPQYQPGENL

Structure (SMILES) | Kd [1] | Kd [2] | Kd [3] | Kd [4] | Kd [5] | Kd [6]
Cc1cc(Nc2ncnc3ccc(NC4=NC(C)(C)CO4)cc23)ccc1Oc1ccn2ncnc2c1 [TUCATINIB] | > 30 µM (inactive) | > 30 µM (inactive) | > 30 µM (inactive) | > 30 µM (inactive) | > 30 µM (inactive) | > 30 µM (inactive)
Cn1ncc(Cl)c1-c1cc(C(=O)N[C@H](CN)Cc2ccc(F)c(F)c2)oc1Cl [UPROSERTIB] | 0.01 µM (active) | > 30 µM (inactive) | > 30 µM (inactive) | > 30 µM (inactive) | > 30 µM (inactive) | > 30 µM (inactive)
CC(C)c1cc(CNc2nc(Nc3cc(C4CC4)[nH]n3)cc(N3CCN(C)CC3)n2)on1 [XL-228] | > 30 µM (inactive) | 0.459 µM (active) | > 30 µM (inactive) | > 30 µM (inactive) | > 30 µM (inactive) | 0.005 µM (active)

Further lines, results first:

Kd [1] | Kd [2] | Kd [3] | Kd [4] | Kd [5] | Kd [6] | Structure (SMILES)
23.2 µM (active) | > 30 µM (inactive) | > 30 µM (inactive) | 0.034 µM (active) | > 30 µM (inactive) | > 30 µM (inactive) | C[C@@H](N)c1ccc(C(=O)Nc2ccnc3[nH]ccc23)cc1 [Y-39983]
> 30 µM (inactive) | > 30 µM (inactive) | > 30 µM (inactive) | 0.996 µM (active) | 1.07 µM (active) | > 30 µM (inactive) | CN1C/C=C/CCOc2cccc(c2)-c2ccnc(n2)Nc2cccc(c2)C1 [ZOTIRACICLIB]
